Experimental data from patent publication US11530217B1, “Antitubercular compounds” (priority 2022, dated 2022).
Values after ≈ are worked out from the molar mass of the structure shown.

These compounds were tested on susceptible H37Rv MTB strain (assay: Resazurin Microplate Assay (REMA), anti-tubercular activity, H37Rv). Conditions: Mycobacterium tuberculosis, 192 h; in vitro, REMA, susceptible H37Rv MTB strain, 8 days incubation; read-out: MIC (μg/mL) H37Rv.
Assay type: cell-based
Compound `COC(=O)c1c(C(=O)OC)c2c(C)cc(C)cn2c1C(=O)c1ccc(C#N)cc1` [Compound 5l, Dimethyl 3-(4-cyanobenzoyl)-6,8-dimethylindolizine-1,2-dicarboxylate] has an MIC of 4 µg/mL (≈ 10.2 µM). In the case of `COC(=O)c1c(C(=O)OC)c2c(C)cc(C)cn2c1C(=O)c1ccc(Cl)cc1` [Compound 5d, Dimethyl 3-(4-chlorobenzoyl)-6,8-dimethylindolizine-1,2-dicarboxylate], the MIC was 8 µg/mL (≈ 20 µM). For `CCOC(=O)c1cc(C(=O)c2ccc(Cl)cc2)n2cc(C)cc(C)c12` [Compound 5c, Ethyl 3-(4-chlorobenzoyl)-6,8-dimethylindolizine-1-carboxylate], the MIC was 0.5 µg/mL (≈ 1.41 µM).

Same assay, conditions: Mycobacterium tuberculosis, H37RV, 192 h, read-out: MIC (μg/mL) H37Rv
Work on `COC(=O)c1c(C(=O)OC)c2c(C)cc(C)cn2c1C(=O)c1ccc(OC)cc1` [Compound 5b, Dimethyl 3-(4-methoxybenzoyl)-6,8-dimethylindolizine-1,2-dicarboxylate] yielded an MIC of 4 µg/mL (≈ 10.1 µM). `CCOC(=O)c1cc(C(=O)c2ccccc2[N+](=O)[O-])n2cc(C)cc(C)c12` [Compound 5h, Ethyl 6,8-dimethyl-3-(2-nitrobenzoyl)indolizine-1-carboxylate] showed an MIC of 4 µg/mL (≈ 10.9 µM). Compound `CCOC(=O)c1cc(C(=O)c2ccc(C#N)cc2)n2cc(C)cc(C)c12` [Compound 5j, Ethyl 3-(4-cyanobenzoyl)-6,8-dimethylindolizine-1-carboxylate] has an MIC of 0.5 µg/mL (≈ 1.44 µM). For `CCOC(=O)c1cc(C(=O)c2ccc(C)cc2)n2cc(C)cc(C)c12` [Compound 5k, Ethyl 6,8-dimethyl-3-(4-methylbenzoyl)indolizine-1-carboxylate], the MIC was 0.5 µg/mL (≈ 1.49 µM). In the case of `CCOC(=O)c1cc(C(=O)c2cc(C(F)(F)F)cc(C(F)(F)F)c2)n2cc(C)cc(C)c12` [Compound 5i, Ethyl 3-(3,5-bis(trifluoromethyl)benzoyl)-6,8-dimethylindolizine-1-carboxylate], the MIC was 4 µg/mL (≈ 8.75 µM). Compound `CCOC(=O)c1cc(C(=O)c2ccc(F)cc2)n2cc(C)cc(C)c12` [Compound 5g, Ethyl 3-(4-fluorobenzoyl)-6,8-dimethylindolizine-1-carboxylate] has an MIC of 4 µg/mL (≈ 11.8 µM). In the case of `COC(=O)c1c(C(=O)OC)c2c(C)cc(C)cn2c1C(=O)c1ccc(C)cc1` [Compound 5m, Dimethyl 6,8-dimethyl-3-(4-methylbenzoyl)indolizine-1,2-dicarboxylate], the MIC was 0.25 µg/mL (≈ 0.659 µM).
